In PMC11939470, “The Cyclic Antimicrobial Peptide C-LR18 Has Enhanced Antibacterial Activity, Improved Stability, and a Longer Half-Life Compared to the Original Peptide” (Antibiotics, 2025):

How the values were obtained:
E. coli ATCC25922 = assay: Membrane permeability assay (propidium iodide uptake, flow cytometry); type: cell-based; conditions: melittin 4 μM, positive control, 30 min 37 °C
Procedure: The effect of C-LR18 on bacterial membrane permeability was measured using the propidium iodide (PI) uptake assay described in [22]. E. coli ATCC25922 in logarithmic growth phase were adjusted to 1 × 10^6 CFU/mL. C-LR18 was added with the final concentration of 4 μM. The mixtures were incubated for 30 min at 37 °C. […] After eliminating unbound dye by washing twice with PBS, the bacterial cells were detected using a flow cytometer (Ex = 535 nm/Em = 615 nm). The results were analyzed using FlowJo 6.2.1 and GraphPad Prism 5 software.

[1] = cited from earlier work
Excerpt: An in vivo toxicity test is an essential step in the safety evaluation of exogenous drugs. The purpose is to observe the systemic toxicity of drugs on animals, including whether there are adverse physiological reactions, pathological changes in organs and tissues of the whole body, and the mortality of animals. Therefore, before the treatment of C-LR18 on E. coli-infected mice, we tested the acute toxicity of C-LR18 in mice.

E. coli Y1 [2] = assay: Therapeutic experiment, survival of E. coli-infected mice; type: in vivo, KM mice; conditions: polymyxin B 5.0 mg/kg ip 1 h after ip E. coli Y1 challenge, 10 mice per group
Procedure: The mice (female, 18–21 g) were randomly divided into 6 groups, with PBS dilution as the control group. A total of 1–5 groups were injected intraperitoneally with 0.5 mL of E. coli solution containing […] CFU/mL, respectively. After inoculation, the mice were observed continuously for 5 days, and the mortality rate was recorded. The minimum dose (LD 100) at which all mice die within 5 days was used as the optimal dose for the bacterial attack in this experiment.
In order to further evaluate the therapeutic potential of antimicrobial peptide C-LR18, a mouse model infected with E. coli was constructed in this study. The Km mice (female, 18–21 g) were maintained at constant room temperature [(25 ± 2) °C] with free access to food and water for 48 h. […] A total of 0.5 mL of E. coli Y1 suspension (10^9 CFU/m L) was intraperitoneally injected into each group of mice. One hour after challenge, different doses of C-LR18 (2.5 mg/kg, 5 mg/kg, and 7.5 mg/kg) and polymyxin B (5 mg/kg) were intraperitoneally injected into mice. The group injected with the same dose of physiological water was the control group.

E. coli Y1 [3] = assay: Bacterial load in liver and spleen of mice; type: in vivo; conditions: polymyxin B 1 mg/kg, positive control, one mouse every 24 h
Procedure: One hour after the mice were intraperitoneally injected with 0.5 mL of E. coli Y1 suspension (10^9 CFU/mL), C-LR18 was injected into the mice at a dose of 7.5 mg/kg through the tail vein. The normal saline group was used as negative control, and the polymyxin B group (1 mg/kg) was used as positive control. After that, one mouse was taken every 24 h, sacrificed via cervical dislocation, and the liver and spleen were removed, weighed, and added to PBS buffer for grinding at 3000 r/min for 2 min. The abrasive solution was diluted with sterile PBS (1:10,000), and 0.1 mL diluent was evenly coated in solid MH medium and cultured at 37 °C overnight. Colony counting was performed on the samples, and the bacterial colonization amount in liver and spleen was calculated.

## CC[C@H](C)[C@H](NC(=O)CN)C(=O)NCC(=O)N[C@@H](C)C(=O)N[C@H](C(=O)N[C@@H](CC(C)C)C(=O)N[C@@H](CCCCN)C(=O)N[C@H](C(=O)N[C@@H](CC(C)C)C(=O)N[C@H](C(=O)N[C@H](C(=O)NCC(=O)N[C@@H](CC(C)C)C(=O)N1CCC[C@H]1C(=O)N[C@@H](C)C(=O)N[C@@H](CC(C)C)C(=O)N[C@H](C(=O)N[C@@H](CO)C(=O)N[C@@H](Cc1c[nH]c2ccccc12)C(=O)N[C@H](C(=O)N[C@@H](CCCCN)C(=O)N[C@@H](CCCNC(=N)N)C(=O)N[C@@H](CCCCN)C(=O)N[C@@H](CCCNC(=N)N)C(=O)N[C@@H](CCC(N)=O)C(=O)N[C@@H](CCC(N)=O)C(N)=O)[C@@H](C)CC)[C@@H](C)CC)[C@@H](C)O)[C@@H](C)O)C(C)C)C(C)C [Melittin, reference compound]
E. coli ATCC25922
  PI fluorescence of treated cells (PI-A+): 83.6%
[1]
  LD50: 4.98 mg/kg

## polymyxin B [reference compound]
E. coli Y1 [2]
  survival rate of mice: 50%
E. coli Y1 [3]
  bacterial colonization in liver and spleen: significantly less than that in the negative control group
[1]
  LD50: 6.52 mg/kg
